Results: ChEMBL document CHEMBL1140860, “Synthesis and evaluation of dihydroartemisinin and dihydroartemisitene acetal dimers showing anticancer and antiprotozoal activity” (Bioorg Med Chem, 2009)
pIC50: −log10 of the molar value.

Legend:
[1] = system: HCC 2998; assay: Growth inhibition of human HCC2998 cells after 48 hrs by sulforhodamine B assay; format: functional; conditions: HCC 2998, 48 h
[2] = Selectivity index, ratio of TC50 for african green monkey (Cercopithecus aethiops) Vero cells to IC50 for chloroquine-resistant Plasmodium falciparum W2; format: toxicity, cell-based
[3] = system: SNB-19; assay: Growth inhibition of human SNB19 cells after 48 hrs by sulforhodamine B assay; format: functional; conditions: SNB-19, 48 h
[4] = system: MDA-N; assay: Growth inhibition of human MDA-N cells after 48 hrs by sulforhodamine B assay; format: functional
[5] = system: KM12; assay: Growth inhibition of human KM12 cells after 48 hrs by sulforhodamine B assay; format: functional; conditions: KM12, 48 h
[6] = system: M14; assay: Growth inhibition of human M14 cells after 48 hrs by sulforhodamine B assay; format: functional; conditions: M14, 48 h
[7] = system: HOP-62; assay: Growth inhibition of human HOP62 cells after 48 hrs by sulforhodamine B assay; format: functional; conditions: HOP-62, 48 h
[8] = system: HT-29; assay: Growth inhibition of human HT-29 cells after 48 hrs by sulforhodamine B assay; format: functional; conditions: HT-29, 48 h
[9] = system: LOX IMVI; assay: Growth inhibition of human LOXIMVI cells after 48 hrs by sulforhodamine B assay; format: functional
[10] = system: ACHN; assay: Growth inhibition of human ACHN cells after 48 hrs by sulforhodamine B assay; format: functional
[11] = Selectivity index, ratio of TC50 for african green monkey (Cercopithecus aethiops) Vero cells to IC50 for chloroquine-sensitive Plasmodium falciparum D6; format: toxicity, cell-based
[12] = system: SF-268; assay: Growth inhibition of human SF268 cells after 48 hrs by sulforhodamine B assay; format: functional; conditions: SF-268, 48 h
[13] = system: OVCAR-8; assay: Growth inhibition of human OVCAR8 cells after 48 hrs by sulforhodamine B assay; format: functional; conditions: OVCAR-8, 48 h
[14] = system: IGROV-1; assay: Growth inhibition of human IGROV1 cells after 48 hrs by sulforhodamine B assay; format: functional; conditions: IGROV-1, 48 h
[15] = system: NCI/ADR-RES; assay: Growth inhibition of human NCI/ADR-RES cells after 48 hrs by sulforhodamine B assay; format: functional
[16] = system: MDA-MB-435; assay: Growth inhibition of human MDA-MB-435 cells after 48 hrs by sulforhodamine B assay; format: functional; conditions: MDA-MB-435, 48 h
[17] = Growth inhibition of human […] cells after 48 hrs by sulforhodamine B assay; format: functional
[18] = system: U-251; assay: Growth inhibition of human U251 cells after 48 hrs by sulforhodamine B assay; format: functional; conditions: U-251, 48 h
[19] = system: SNB-75; assay: Growth inhibition of human SNB75 cells after 48 hrs by sulforhodamine B assay; format: functional; conditions: SNB-75, 48 h
[20] = system: BT-549; assay: Growth inhibition of human BT549 cells after 48 hrs by sulforhodamine B assay; format: functional; conditions: BT-549, 48 h
[21] = system: COLO 205; assay: Growth inhibition of human COLO205 cells after 48 hrs by sulforhodamine B assay; format: functional; conditions: COLO 205, 48 h
[22] = system: SN12C; assay: Growth inhibition of human SN12C cells after 48 hrs by sulforhodamine B assay; format: functional
[23] = system: MCF7; assay: Growth inhibition of human MCF7 cells after 48 hrs by sulforhodamine B assay; format: functional; conditions: MCF7, 48 h
[24] = system: SK-MEL-2; assay: Growth inhibition of human SK-MEL-2 cells after 48 hrs by sulforhodamine B assay; format: functional; conditions: SK-MEL-2, 48 h
[25] = system: HOP-92; assay: Growth inhibition of human HOP92 cells after 48 hrs by sulforhodamine B assay; format: functional; conditions: HOP-92, 48 h
[26] = system: SK-MEL-28; assay: Growth inhibition of human SK-MEL-28 cells after 48 hrs by sulforhodamine B assay; format: functional; conditions: SK-MEL-28, 48 h
[27] = system: OVCAR-4; assay: Growth inhibition of human OVCAR4 cells after 48 hrs by sulforhodamine B assay; format: functional; conditions: OVCAR-4, 48 h
[28] = system: T47D; assay: Growth inhibition of human T47D cells after 48 hrs by sulforhodamine B assay; format: functional
[29] = Cytotoxicity against african green monkey Vero cells after 48 hrs by neutral red assay; format: cell-based; conditions: chlorocebus sabaeus, read-out: TC50
[30] = system: HCT-15; assay: Growth inhibition of human HCT15 cells after 48 hrs by sulforhodamine B assay; format: functional; conditions: HCT-15, 48 h
[31] = system: A549; assay: Growth inhibition of human A549 cells after 48 hrs by sulforhodamine B assay; format: functional; conditions: A549, 48 h
[32] = system: UACC-62; assay: Growth inhibition of human UACC62 cells after 48 hrs by sulforhodamine B assay; format: functional; conditions: UACC-62, 48 h
[33] = system: NCI-H226; assay: Growth inhibition of human NCI-H226 cells after 48 hrs by sulforhodamine B assay; format: functional; conditions: NCI-H226, 48 h
[34] = system: NCI-H522; assay: Growth inhibition of human NCI-H522 cells after 48 hrs by sulforhodamine B assay; format: functional; conditions: NCI-H522, 48 h
[35] = system: RXF 393; assay: Growth inhibition of human RXF393 cells after 48 hrs by sulforhodamine B assay; format: functional; conditions: RXF 393, 48 h
[36] = system: CCRF-CEM; assay: Growth inhibition of human CCRF-CEM cells after 48 hrs by sulforhodamine B assay; format: functional
[37] = system: EKVX; assay: Growth inhibition of human EKVX cells after 48 hrs by sulforhodamine B assay; format: functional
[38] = system: 786-0; assay: Growth inhibition of human 786-0 cells after 48 hrs by sulforhodamine B assay; format: functional; conditions: 786-0, 48 h
[39] = system: MOLT-4; assay: Growth inhibition of human MOLT4 cells after 48 hrs by sulforhodamine B assay; format: functional; conditions: MOLT-4, 48 h
[40] = system: PC-3; assay: Growth inhibition of human PC3 cells after 48 hrs by sulforhodamine B assay; format: functional; conditions: PC-3, 48 h
[41] = system: A498; assay: Growth inhibition of human A498 cells after 48 hrs by sulforhodamine B assay; format: functional; conditions: A498, 48 h
[42] = system: Plasmodium falciparum; assay: Antimalarial activity after 72 hrs against chloroquine-sensitive Plasmodium falciparum D6 infected in erythrocytes by LDH assay; format: functional, organism-based; conditions: D6, 72 h
[43] = system: NCI-H460; assay: Growth inhibition of human NCI-H460 cells after 48 hrs by sulforhodamine B assay; format: functional; conditions: NCI-H460, 48 h
[44] = system: OVCAR-5; assay: Growth inhibition of human OVCAR5 cells after 48 hrs by sulforhodamine B assay; format: functional; conditions: OVCAR-5, 48 h
[45] = system: K562; assay: Growth inhibition of human K562 cells after 48 hrs by sulforhodamine B assay; format: functional; conditions: K562, 48 h
[46] = system: Malme-3M; assay: Growth inhibition of human MALME-3M cells after 48 hrs by sulforhodamine B assay; format: functional
[47] = system: NCI-H23; assay: Growth inhibition of human NCI-H23 cells after 48 hrs by sulforhodamine B assay; format: functional; conditions: NCI-H23, 48 h
[48] = system: UO-31; assay: Growth inhibition of human UO31 cells after 48 hrs by sulforhodamine B assay; format: functional; conditions: UO-31, 48 h
[49] = system: Plasmodium falciparum; assay: Antimalarial activity after 72 hrs against chloroquine-resistant Plasmodium falciparum W2 infected erythrocytes by LDH assay; format: functional, organism-based; conditions: W2, 72 h
[50] = system: SK-MEL-5; assay: Growth inhibition of human SK-MEL-5 cells after 48 hrs by sulforhodamine B assay; format: functional; conditions: SK-MEL-5, 48 h
[51] = system: NCI-H322M; assay: Growth inhibition of human NCI-H322M cells after 48 hrs by sulforhodamine B assay; format: functional
[52] = system: HCT-116; assay: Growth inhibition of human HCT116 cells after 48 hrs by sulforhodamine B assay; format: functional; conditions: HCT-116, 48 h
[53] = system: CAKI-1; assay: Growth inhibition of human Caki1 cells after 48 hrs by sulforhodamine B assay; format: functional; conditions: CAKI-1, 48 h
[54] = system: OVCAR-3; assay: Growth inhibition of human OVCAR-3 cells after 48 hrs by sulforhodamine B assay; format: functional; conditions: OVCAR-3, 48 h
[55] = system: TK-10; assay: Growth inhibition of human TK10 cells after 48 hrs by sulforhodamine B assay; format: functional; conditions: TK-10, 48 h
[56] = system: MDA-MB-231; assay: Growth inhibition of human MDA-MB-231 cells after 48 hrs by sulforhodamine B assay; format: functional; conditions: MDA-MB-231, 48 h
[57] = system: SW-620; assay: Growth inhibition of human SW620 cells after 48 hrs by sulforhodamine B assay; format: functional; conditions: SW-620, 48 h
[58] = system: SR; assay: Growth inhibition of human SR cells after 48 hrs by sulforhodamine B assay; format: functional
[59] = system: SK-OV-3; assay: Growth inhibition of human SKOV3 cells after 48 hrs by sulforhodamine B assay; format: functional; conditions: SK-OV-3, 48 h
[60] = Growth inhibition of human Hs 578T cells after 48 hrs by sulforhodamine B assay; format: functional
[61] = system: HL-60; assay: Growth inhibition of human HL-60(TB) cells after 48 hrs by sulforhodamine B assay; format: functional; conditions: HL-60, 48 h
[62] = system: UACC-257; assay: Growth inhibition of human UACC257 cells after 48 hrs by sulforhodamine B assay; format: functional; conditions: UACC-257, 48 h

For C[C@H]1[C@H](OCCCCO[C@H]2O[C@@H]3O[C@@]4(C)CC[C@H]5[C@H](C)CC[C@@H]([C@H]2C)[C@@]35OO4)O[C@@H]2O[C@@]3(C)CC[C@H]4[C@H](C)CC[C@@H]1[C@@]24OO3, the GI50 [1] was 365 nM, the selectivity ratio [2] was over 54 and the GI50 [3] was 869 nM. It also gave a GI50 [4] of 58 nM, a GI50 [5] of 12 nM and a GI50 [6] of 148 nM. The GI50 [7] was 42000 nM, the GI50 [8] was 15 nM and the GI50 [9] was 8 nM. For the same molecule, the GI50 [10] was 31 nM, the selectivity ratio [11] was 43 and the GI50 [12] was 5620 nM. It also gave a GI50 [13] of 47 nM, a GI50 [14] of 381 nM and a GI50 [15] of 214 nM. For the same molecule, the GI50 [16] was 18 nM, the GI50 [17] was under 5 nM and the GI50 [18] was 25 nM. It also gave a GI50 [19] of 8050 nM, a GI50 [20] of 220 nM and a GI50 [21] of 12 nM. For the same molecule, the GI50 [22] was 210 nM, the GI50 [23] was 43 nM and the GI50 [24] was 318 nM. For the same molecule, the GI50 [25] was 6400 nM, the GI50 [26] was 8820 nM and the GI50 [27] was 148 nM. For the same molecule, the GI50 [28] was under 5 nM, the CC50 at 48 h [29] was over 764000 nM and the GI50 [30] was 7 nM. The GI50 [31] was 35 nM, the GI50 [32] was 215 nM and the GI50 [33] was 34 nM. For the same molecule, the GI50 [34] was 16 nM, the GI50 [35] was 9800 nM and the GI50 [36] was 15 nM. For the same molecule, the GI50 [37] was 44 nM, the GI50 [38] was 107 nM and the GI50 [39] was 8 nM. For the same molecule, the GI50 [40] was 11 nM, the GI50 [41] was 5770 nM and the pIC50 [42] was 4.75. The GI50 [43] was 4230 nM, the GI50 [44] was 65 nM and the GI50 [45] was 12 nM. It also gave a GI50 [46] of 353 nM, a GI50 [47] of 20 nM and a GI50 [48] of 22 nM. For the same molecule, the pIC50 [49] was 4.85, the GI50 [50] was 115 nM and the GI50 [51] was 16000 nM. For the same molecule, the GI50 [52] was 10 nM, the GI50 [53] was 6560 nM and the GI50 [54] was 203 nM. It also gave a GI50 [55] of 23 nM, a GI50 [56] of 5070 nM and a GI50 [57] of 16 nM. For the same molecule, the GI50 [58] was under 5 nM, the GI50 [59] was 7210 nM and the GI50 [60] was 133 nM. The GI50 [61] was 12 nM and the GI50 [62] was 69 nM.
